± gives the expanded uncertainty stated by the source.
Conditions: 283.15 K, Liquid, Vibrating tube method

CCCCCC(=O)OCC(COC(=O)CCCCC)(COC(=O)CCCCC)COC(=O)CCCCC [pentaerythritol tetrahexanoate]
mass density (12947 kPa): 1011.7 ± 1.2 kg/m3
mass density (12961 kPa): 1011.5 ± 1.2 kg/m3
mass density (12978 kPa): 1011.5 ± 1.2 kg/m3
mass density (12991 kPa): 1011.6 ± 1.2 kg/m3
mass density (13005 kPa): 1011.6 ± 1.2 kg/m3
mass density (13019 kPa): 1011.6 ± 1.2 kg/m3
mass density (13036 kPa): 1011.6 ± 1.2 kg/m3
mass density (13050 kPa): 1011.7 ± 1.2 kg/m3
mass density (13064 kPa): 1011.4 ± 1.2 kg/m3
mass density (13081 kPa): 1011.6 ± 1.2 kg/m3
mass density (13095 kPa): 1011.5 ± 1.2 kg/m3
mass density (13109 kPa): 1011.6 ± 1.2 kg/m3
mass density (13126 kPa): 1011.7 ± 1.2 kg/m3
mass density (13139 kPa): 1011.7 ± 1.2 kg/m3
mass density (13156 kPa): 1011.7 ± 1.2 kg/m3
mass density (13170 kPa): 1011.7 ± 1.2 kg/m3
mass density (13185 kPa): 1011.7 ± 1.2 kg/m3
mass density (13202 kPa): 1011.8 ± 1.2 kg/m3
mass density (13216 kPa): 1011.7 ± 1.2 kg/m3
mass density (13233 kPa): 1011.7 ± 1.2 kg/m3
mass density (13247 kPa): 1011.7 ± 1.2 kg/m3
mass density (13262 kPa): 1011.8 ± 1.2 kg/m3
mass density (13276 kPa): 1011.9 ± 1.2 kg/m3
mass density (13293 kPa): 1011.7 ± 1.2 kg/m3
mass density (13308 kPa): 1011.8 ± 1.2 kg/m3
mass density (13322 kPa): 1011.7 ± 1.2 kg/m3
mass density (13340 kPa): 1011.8 ± 1.2 kg/m3
mass density (13355 kPa): 1011.8 ± 1.2 kg/m3
mass density (13372 kPa): 1011.8 ± 1.2 kg/m3
mass density (13386 kPa): 1011.9 ± 1.2 kg/m3
mass density (13401 kPa): 1011.8 ± 1.2 kg/m3
mass density (13419 kPa): 1012 ± 1.2 kg/m3
mass density (13434 kPa): 1011.8 ± 1.2 kg/m3
mass density (13448 kPa): 1011.8 ± 1.2 kg/m3
mass density (13466 kPa): 1011.8 ± 1.2 kg/m3
mass density (13481 kPa): 1012 ± 1.2 kg/m3
mass density (13496 kPa): 1011.9 ± 1.2 kg/m3
mass density (13514 kPa): 1011.8 ± 1.2 kg/m3
mass density (13529 kPa): 1011.9 ± 1.2 kg/m3
mass density (13544 kPa): 1012 ± 1.2 kg/m3
mass density (13559 kPa): 1012 ± 1.2 kg/m3
mass density (13577 kPa): 1011.9 ± 1.2 kg/m3
mass density (13592 kPa): 1011.9 ± 1.2 kg/m3
mass density (13607 kPa): 1011.9 ± 1.2 kg/m3
mass density (13625 kPa): 1011.8 ± 1.2 kg/m3
mass density (13640 kPa): 1012 ± 1.2 kg/m3
mass density (13655 kPa): 1012.1 ± 1.2 kg/m3
mass density (13669 kPa): 1012 ± 1.2 kg/m3
mass density (13687 kPa): 1012.1 ± 1.2 kg/m3
mass density (13702 kPa): 1012 ± 1.2 kg/m3
mass density (13716 kPa): 1011.8 ± 1.2 kg/m3
mass density (13735 kPa): 1012 ± 1.2 kg/m3
mass density (13750 kPa): 1011.9 ± 1.2 kg/m3
mass density (13765 kPa): 1011.9 ± 1.2 kg/m3
mass density (13782 kPa): 1012.1 ± 1.2 kg/m3
mass density (13797 kPa): 1012.1 ± 1.2 kg/m3
mass density (13810 kPa): 1012.1 ± 1.2 kg/m3
mass density (13827 kPa): 1012.1 ± 1.2 kg/m3
mass density (13842 kPa): 1011.9 ± 1.2 kg/m3
mass density (13855 kPa): 1012 ± 1.2 kg/m3
mass density (13870 kPa): 1012.1 ± 1.2 kg/m3
mass density (13883 kPa): 1012.1 ± 1.2 kg/m3
mass density (13894 kPa): 1012.1 ± 1.2 kg/m3
mass density (13906 kPa): 1012 ± 1.2 kg/m3
mass density (13920 kPa): 1012.1 ± 1.2 kg/m3
mass density (13934 kPa): 1012.3 ± 1.2 kg/m3
mass density (13949 kPa): 1012.2 ± 1.2 kg/m3
mass density (13966 kPa): 1012.1 ± 1.2 kg/m3
mass density (13981 kPa): 1012.1 ± 1.2 kg/m3
mass density (13996 kPa): 1012.2 ± 1.2 kg/m3
mass density (14013 kPa): 1012.1 ± 1.2 kg/m3
mass density (14027 kPa): 1012.2 ± 1.2 kg/m3
mass density (14042 kPa): 1012.1 ± 1.2 kg/m3
mass density (14058 kPa): 1012.2 ± 1.2 kg/m3
mass density (14073 kPa): 1012.3 ± 1.2 kg/m3
mass density (14087 kPa): 1012.2 ± 1.2 kg/m3
mass density (14104 kPa): 1012.2 ± 1.2 kg/m3
mass density (14118 kPa): 1012.1 ± 1.2 kg/m3
mass density (14133 kPa): 1012.2 ± 1.2 kg/m3
mass density (14150 kPa): 1012.1 ± 1.2 kg/m3
mass density (14164 kPa): 1012.3 ± 1.2 kg/m3
mass density (14179 kPa): 1012.3 ± 1.2 kg/m3
mass density (14196 kPa): 1012.2 ± 1.2 kg/m3
mass density (14211 kPa): 1012.2 ± 1.2 kg/m3
mass density (14225 kPa): 1012.2 ± 1.2 kg/m3
mass density (14243 kPa): 1012.1 ± 1.2 kg/m3
mass density (14257 kPa): 1012.3 ± 1.2 kg/m3
mass density (14272 kPa): 1012.3 ± 1.2 kg/m3
mass density (14289 kPa): 1012.3 ± 1.2 kg/m3
mass density (14304 kPa): 1012.3 ± 1.2 kg/m3
mass density (14320 kPa): 1012.4 ± 1.2 kg/m3
mass density (14335 kPa): 1012.4 ± 1.2 kg/m3
mass density (14350 kPa): 1012.3 ± 1.2 kg/m3
mass density (14368 kPa): 1012.2 ± 1.2 kg/m3
mass density (14382 kPa): 1012.4 ± 1.2 kg/m3
mass density (14397 kPa): 1012.4 ± 1.2 kg/m3
mass density (14415 kPa): 1012.6 ± 1.2 kg/m3
mass density (14430 kPa): 1012.3 ± 1.2 kg/m3
mass density (14448 kPa): 1012.4 ± 1.2 kg/m3
mass density (14463 kPa): 1012.3 ± 1.2 kg/m3
mass density (14478 kPa): 1012.3 ± 1.2 kg/m3
mass density (14496 kPa): 1012.4 ± 1.2 kg/m3
mass density (14511 kPa): 1012.4 ± 1.2 kg/m3
mass density (14527 kPa): 1012.4 ± 1.2 kg/m3
mass density (14542 kPa): 1012.5 ± 1.2 kg/m3
mass density (14560 kPa): 1012.4 ± 1.2 kg/m3
mass density (14575 kPa): 1012.4 ± 1.2 kg/m3
mass density (14591 kPa): 1012.4 ± 1.2 kg/m3
mass density (14609 kPa): 1012.6 ± 1.2 kg/m3
mass density (14624 kPa): 1012.5 ± 1.2 kg/m3
mass density (14640 kPa): 1012.4 ± 1.2 kg/m3
mass density (14658 kPa): 1012.5 ± 1.2 kg/m3
mass density (14674 kPa): 1012.5 ± 1.2 kg/m3
mass density (14689 kPa): 1012.4 ± 1.2 kg/m3
mass density (14708 kPa): 1012.4 ± 1.2 kg/m3
mass density (14724 kPa): 1012.5 ± 1.2 kg/m3
mass density (14739 kPa): 1012.5 ± 1.2 kg/m3
mass density (14755 kPa): 1012.5 ± 1.2 kg/m3
mass density (14774 kPa): 1012.5 ± 1.2 kg/m3
mass density (14790 kPa): 1012.6 ± 1.2 kg/m3
mass density (14805 kPa): 1012.6 ± 1.2 kg/m3
mass density (14824 kPa): 1012.6 ± 1.2 kg/m3
mass density (14840 kPa): 1012.7 ± 1.2 kg/m3
mass density (14856 kPa): 1012.7 ± 1.2 kg/m3
mass density (14875 kPa): 1012.6 ± 1.2 kg/m3
mass density (14891 kPa): 1012.7 ± 1.2 kg/m3
mass density (14907 kPa): 1012.7 ± 1.2 kg/m3
mass density (14926 kPa): 1012.7 ± 1.2 kg/m3
mass density (14942 kPa): 1012.6 ± 1.2 kg/m3
mass density (14959 kPa): 1012.8 ± 1.2 kg/m3
mass density (14974 kPa): 1012.7 ± 1.2 kg/m3
mass density (14993 kPa): 1012.7 ± 1.2 kg/m3
mass density (15008 kPa): 1012.6 ± 1.2 kg/m3
mass density (15024 kPa): 1012.8 ± 1.2 kg/m3
mass density (15042 kPa): 1012.7 ± 1.2 kg/m3
mass density (15058 kPa): 1012.8 ± 1.2 kg/m3
mass density (15074 kPa): 1012.7 ± 1.2 kg/m3
mass density (15090 kPa): 1012.8 ± 1.2 kg/m3
mass density (15108 kPa): 1012.8 ± 1.2 kg/m3
mass density (15124 kPa): 1012.8 ± 1.2 kg/m3
mass density (15140 kPa): 1012.8 ± 1.2 kg/m3
mass density (15159 kPa): 1012.7 ± 1.2 kg/m3
mass density (15175 kPa): 1012.9 ± 1.2 kg/m3
mass density (15190 kPa): 1012.9 ± 1.2 kg/m3
mass density (15209 kPa): 1012.8 ± 1.2 kg/m3

From the NIST ThermoML archive (doi:10.1021/je060271a)
